# Experimental data as given in US12029751B2, “Therapeutic agent for nervous system disease” (OSAKA UNIVERSITY, priority 2017, dated 2024).
# System: Akt-mTOR pathway
# Assay: Western blot of Akt, 4EBP1 and S6K phosphorylation (mechanism of macrophage induction)
# Assay type: cell-based, mouse
# Conditions: IL-4 20 ng/ml + MeCbl 1 mM + RAD001 (200 nM), 30 minutes
# Experimental: The J774A.1 cells (Example 5-1) were seeded on a dish having a diameter of 6 cm. After 4 days, proteins were collected using a cell lysis buffer containing a cocktail of protease inhibitors. The protein concentration was measured by BCA assay. Then, 50 μg of each sample was subjected to SDS-PAGE, and the electrophoresed proteins were transferred to a polyvinylidene difluoride membrane. The membrane was blocked with a blocking buffer for 1 hour, and then the proteins were allowed to react with primary antibodies at 4° C. overnight. The proteins were further allowed to react with a secondary antibody at room temperature for 1 hour and detected using ECL Western Blotting Detection System. To detect the M1 markers iNOS and IL-1β, lipopolysaccharide (LPS) (100 ng/ml) and methylcobalamin were added at 24 hours before collecting the proteins. To detect the M2 markers Arg1 and CD206, IL-4 (20 ng/ml) and methylcobalamin were added at 72 hours before collecting the proteins.
# The mechanism of the macrophage induction (Example 5) by methylcobalamin was analyzed. Specifically, the analysis was carried out as follows. At 30 minutes after IL-4 and methylcobalamin (100 nM and 1 mM) were added, activation of Akt, 4EBP1, and S6K in the Akt-mTOR pathway (one of the major signaling pathways that induce M2 gene expression) was evaluated by Western blot. In the pathway, Akt phosphorylation occurs in response to an upstream signal, and 4EBP1 phosphorylation and S6K phosphorylation further occur through mTORC1 in the downstream. The S6K phosphorylation provides a negative feedback to the upstream of the signaling pathway. Western blot was performed as in Example 5-2, except that IL-4 (20 ng/ml), methylcobalamin, and RAD001 (200 nM) were added at 30 minutes before the proteins were collected, and the primary antibodies for detection were changed.
compound,measurement,value
CO[C@H]1C[C@@H]2CC[C@@H](C)[C@@](O)(O2)C(=O)C(=O)N2CCCC[C@H]2C(=O)O[C@H]([C@H](C)C[C@@H]2CC[C@@H](OCCO)[C@H](OC)C2)CC(=O)[C@H](C)/C=C(\C)[C@@H](O)[C@@H](OC)C(=O)[C@H](C)C[C@H](C)/C=C/C=C/C=C/1C [RAD001],p-4EBP1/4EBP1,suppressed
same,p-Akt/Akt,rescued
same,p-S6K/S6K,suppressed
